Where two headings read alike, the source gives them in different places.
Experiments:
Assay type in all cases: in vivo
[1] = tested on: Ipomoea hederacea; assay: Greenhouse post-emergence (POST) herbicidal test on IPOHE; details: Ipomoea hederacea, post-emergence
Summary of the method: (§1)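 Weeds grown in loamy sand (~3.0% humus) to 3–15 cm were sprayed post-emergence with compounds suspended or emulsified in water, formulated as 5% emulsion concentrates. Plants were kept at 10-25 °C or 20-35 °C by species. Damage was scored 0–100 (100 = complete destruction) at 20 DAT.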

[2] = tested on: Galium aparine; assay: Greenhouse pre-emergence (PRE) herbicidal test on GALAP; details: Galium aparine, pre-emergence; PRE; GALAP; use rate 8 gai/ha
Summary of the method: (§2)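 PRE spray directly after sowing, fine nozzles; actives suspended/emulsified in water, components formulated as 5% w/w EC in spray liquor. Substrate loamy sand ~3.0% humus. Hooded until rooting; 10-25° C. / 20-35° C. per species. Score 0–100, 20 DAT.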

[3] = tested on: Abutilon theophrasti; assay: Greenhouse pre-emergence (PRE) herbicidal test on ABUTH; details: Abutilon theophrasti, pre-emergence
Summary of the method: (§3)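 Each species is sown separately into loamy sand containing roughly 3.0% humus and treated before emergence. Pots are watered and covered until roots establish, then held at 10-25° C or 20-35° C. Injury is rated on a 0 to 100 scale 20 days post-treatment.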

[4] = tested on: Abutilon theophrasti; assay: Greenhouse post-emergence (POST) herbicidal test on ABUTH; details: Abutilon theophrasti, post-emergence
Summary of the method: as §1

[5] = tested on: Setaria viridis; assay: Greenhouse pre-emergence (PRE) herbicidal test on SETVI; details: Setaria viridis, pre-emergence
Summary of the method: as §2

[6] = tested on: Commelina benghalensis; assay: Greenhouse pre-emergence (PRE) herbicidal test on COMBE
Summary of the method: as §3

[7] = tested on: Geranium pusillum; assay: Greenhouse pre-emergence (PRE) herbicidal test on GERPU; details: Geranium pusillum, pre-emergence, use rate 8 gai/ha
Summary of the method: as §2

[8] = tested on: Digitaria sanguinalis; assay: Greenhouse post-emergence (POST) herbicidal test on DIGSA; details: Digitaria sanguinalis, post-emergence, POST
Summary of the method: as §1

Compound: COc1c(Br)cc(F)c(F)c1Nc1nc(N)nc(C(C)(C)F)n1 [Compound I-2]
- inhibition at 2 g/ha ([1]; 480 h, IPOHE POST, 20 DAT, use rate 2 gai/ha, read-out: % activity): 30%
- inhibition at 8 g/ha ([1]; 480 h, IPOHE POST, 20 DAT, use rate 8 gai/ha, read-out: % activity): 80%
- pest or weed control at 2 g/ha ([1]; 480 h, POST, 2 gai/ha, 20 DAT): 30%
- pest or weed control at 8 g/ha ([1]; 480 h, POST, 8 gai/ha, 20 DAT): 80%
- inhibition at 2 g/ha ([1]; 480 h, POST, IPOHE, 2 gai/ha, 20 DAT, read-out: % activity solo application): 30%
- inhibition at 2 g/ha ([1]; 480 h, POST, IPOHE, use rate 2 gai/ha, 20 DAT, read-out: % activity): 10%
- inhibition at 4 g/ha ([1]; 480 h, POST, IPOHE, use rate 4 gai/ha, 20 DAT): 35%
- inhibition at 2 g/ha ([1]; POST, IPOHE, use rate 2 gai/ha, read-out: % activity): 30%
- inhibition at 8 g/ha [2]: 15%
- pest or weed control at 2 g/ha ([3]; 432 h, PRE, ABUTH, I-2 solo 2 gai/ha, 18 DAT): 30%
- pest or weed control at 8 g/ha ([3]; 432 h, PRE, ABUTH, I-2 solo 8 gai/ha, 18 DAT): 50%
- inhibition at 8 g/ha ([3]; 480 h, ABUTH PRE, 20 DAT, use rate 8 gai/ha, read-out: % activity): 65%
- pest or weed control at 2 g/ha ([3]; 480 h, PRE, 2 gai/ha, 20 DAT): 10%
- pest or weed control at 8 g/ha ([3]; 480 h, PRE, 8 gai/ha, 20 DAT): 65%
- inhibition at 2 g/ha ([3]; 480 h, PRE, ABUTH, 2 gai/ha, 20 DAT, read-out: % activity solo application): 10%
- inhibition at 8 g/ha ([3]; 480 h, PRE, ABUTH, 8 gai/ha, 20 DAT, read-out: % activity solo application): 55%
- inhibition at 8 g/ha ([3]; 480 h, PRE, ABUTH, use rate 8 gai/ha, 20 DAT, read-out: solo application % activity): 55%
- inhibition at 2 g/ha ([3]; ABUTH PRE, use rate 2 gai/ha, read-out: % activity): 20%
- inhibition at 2 g/ha ([3]; PRE, ABUTH, use rate 2 gai/ha, read-out: % activity): 20%
- pest or weed control at 2 g/ha ([4]; 432 h, POST, ABUTH, I-2 solo 2 gai/ha, 18 DAT): 20%
- pest or weed control at 8 g/ha ([4]; 432 h, POST, ABUTH, I-2 solo 8 gai/ha, 18 DAT): 20%
- inhibition at 2 g/ha ([4]; 480 h, ABUTH POST, 20 DAT, use rate 2 gai/ha, read-out: % activity): 10%
- pest or weed control at 2 g/ha ([4]; 480 h, POST, 2 gai/ha, 20 DAT): 10%
- inhibition at 2 g/ha ([4]; 480 h, POST, ABUTH, 2 gai/ha, 20 DAT, read-out: % activity solo application): 15%
- inhibition at 8 g/ha ([4]; 480 h, POST, ABUTH, 8 gai/ha, 20 DAT, read-out: % activity solo application): 40%
- inhibition at 8 g/ha ([4]; 480 h, POST, ABUTH, use rate 8 gai/ha, 20 DAT, read-out: solo application % activity): 40%
- pest or weed control at 2 g/ha ([5]; 432 h, PRE, SETVI, I-2 solo 2 gai/ha, 18 DAT): 70%
- pest or weed control at 2 g/ha ([5]; 480 h, PRE, 2 gai/ha, 20 DAT): 10%
- inhibition at 2 g/ha ([5]; 480 h, PRE, SETVI, 2 gai/ha, 20 DAT, read-out: % activity solo application): 25%
- inhibition at 2 g/ha ([5]; 480 h, SETVI PRE, 20 DAT, use rate 2 gai/ha, read-out: % activity): 10%
- inhibition at 2 g/ha ([5]; PRE, SETVI, use rate 2 gai/ha, read-out: % activity): 10%
- inhibition at 4 g/ha ([5]; PRE, SETVI, use rate 4 gai/ha): 30%
- pest or weed control at 8 g/ha ([6]; Commelina benghalensis, pre-emergence, 432 h, PRE, COMBE, I-2 solo 8 gai/ha, 18 DAT): 25%
- inhibition at 2 g/ha ([6]; Commelina benghalensis, pre-emergence, 480 h, COMBE PRE, 20 DAT, use rate 2 gai/ha, read-out: % activity): 20%
- inhibition at 8 g/ha ([6]; Commelina benghalensis, pre-emergence, 480 h, COMBE PRE, 20 DAT, use rate 8 gai/ha, read-out: % activity): 60%
- inhibition at 2 g/ha ([6]; Commelina benghalensis, pre-emergence, 480 h, PRE, COMBE, 2 gai/ha, 20 DAT, read-out: % activity solo application): 10%
- inhibition at 8 g/ha ([6]; Commelina benghalensis, pre-emergence, 480 h, PRE, COMBE, 8 gai/ha, 20 DAT, read-out: % activity solo application): 45%
- inhibition at 8 g/ha ([6]; Commelina benghalensis, pre-emergence, 480 h, PRE, COMBE, use rate 8 gai/ha, 20 DAT, read-out: solo application % activity): 45%
- inhibition at 8 g/ha ([6]; Commelina benghalensis, pre-emergence, COMBE PRE, use rate 8 gai/ha, read-out: % activity): 25%
- inhibition at 4 g/ha ([6]; Commelina benghalensis, pre-emergence, PRE, COMBE, use rate 4 gai/ha): 10%
- % activity ([6]; PRE, COMBE, use rate 4 gai/ha): 15%
- inhibition at 8 g/ha ([7]; 480 h, PRE, GERPU, 20 DAT): 80%
- inhibition at 8 g/ha ([7]; GERPU PRE): 0%
- inhibition at 8 g/ha ([7]; PRE, GERPU): 0%
- pest or weed control at 2 g/ha ([8]; 432 h, DIGSA, I-2 solo 2 gai/ha, 18 DAT): 0%
- pest or weed control at 8 g/ha ([8]; 480 h, 8 gai/ha, 20 DAT): 65%
- inhibition at 2 g/ha ([8]; 480 h, DIGSA, 2 gai/ha, 20 DAT, read-out: % activity solo application): 0%
- inhibition at 8 g/ha ([8]; 480 h, DIGSA, 8 gai/ha, 20 DAT, read-out: % activity solo application): 20%
- inhibition at 2 g/ha ([8]; 480 h, DIGSA, use rate 2 gai/ha, 20 DAT, read-out: solo application % activity): 0%
- inhibition at 8 g/ha ([8]; 480 h, DIGSA, use rate 8 gai/ha, 20 DAT, read-out: solo application % activity): 20%

Source: US20260007133A1, “HERBICIDAL COMPOSITION COMPRISING AZINE COMPOUNDS” (BASF SE, priority 2022, published 2026)
